In brackets after ≈: the same amount, converted by molar mass. Where two headings read alike, the source gives them in different places.
Columns and labels:
Penicillium italicum = assay: Antimicrobial MIC, 96-well broth dilution; assay type: cell-based; conditions: tested range 0.78–100 μg/mL, 48 h at 27 °C, means of three parallel experiments, read-out: minimum inhibitory concentration (MIC)
Text: (§1) In contrast, for fungal inhibition activity, aza-benzofuran compounds show lower activity than oxa-benzofuran compounds. […] In terms of antifungal activity, when compound 5 and 6 form hydroxyl groups at position C-6, their polarity […], making them more susceptible to penetrating fungal cell membranes through hydrophobic mechanisms.
(§2) The minimum inhibitory concentration (MIC) values of antimicrobial activity of compounds 1–4 against three different plant pathogenic […], including Penicillium italicum, Fusarium oxysporum and Colletotrichum musae, and three human pathogenic bacteria, including Salmonella typhimurium (ATCC 6539), Escherichia coli (ATCC 25922) and Staphylococcus aureus (ATCC 12598), were determined via serial dilution technique employing 96-well microtiter plates. In brief, the bacterial cell suspension was adjusted to an inoculum density of 5 × 10^5 cfu/mL by comparison with a MacFarland standard before use. The fungal thallus concentration was adjusted to 1 × 10^6 cfu/mL. The tested compounds in dimethyl sulfoxide (DMSO) were added to PDB/MH broth medium to obtain a series of final concentrations of 100, 50, 25, 12.5, 6.25, 3.13, 1.57, 0.78 μg/mL. DMSO and carbendazim/ciprofloxacin served as negative and positive controls, respectively. The antifungal plates were incubated for 48 h at 27 °C, and the antibacterial plates were incubated for 24 h at 27 °C. Ten microliters of resazurin dissolved in DMSO at 100 μg/mL was added to each well of the microplate, followed by incubation at 27 °C for 3 h. We determined the MIC values by observing color changes using the visual endpoint method. For each parallel experiment, three replicates were measured.

Colletotrichum musae = assay: Antimicrobial MIC, 96-well broth dilution; assay type: cell-based; conditions: tested range 0.78–100 μg/mL, 48 h at 27 °C, means of three parallel experiments; for MIC: 48 h, read-out: minimum inhibitory concentration (MIC)
Text: as §1, §2

Fusarium oxysporum = assay: Antimicrobial MIC, 96-well broth dilution; assay type: cell-based; conditions: tested range 0.78–100 μg/mL, 48 h at 27 °C, means of three parallel experiments, read-out: minimum inhibitory concentration (MIC)
Text: as §1, §2

Cytotoxicity, MTT assay = assay type: cell-based; conditions: mouse
Description: (§3) The anti-inflammatory activities of compounds 1–4 were evaluated by assessing the inhibition of nitric oxide (NO) production in lipopolysaccharide (LPS)-stimulated murine macrophage RAW 264.7 cells. […] In addition, we also tested the cytotoxicity of compounds 1–4, and cytotoxicity was assessed independently of LPS stimulation.
Cell viability was evaluated using MTT (3-(4,5-Dimethylthiazol-2-yl)-2,5-diphenyltetrazolium bromide) assay. RAW 264.7 cells were seeded in 96-well plates at a density of 5 × 10^3 cells per well and incubated overnight. Cells were incubated with tested compounds (DMSO as solvent) at 37 °C for 72 h. Subsequently, 50 μL of MTT/medium solution (0.5 mg/mL) was added to each well, and the cells were incubated for 1 h at 37 °C. After removing the MTT/medium, 100 μL of DMSO was added to each well. The plate was shaken to dissolve the precipitate, and activity was measured at 540 nm using a microplate reader. Cell viability was calculated using the following formula: Cell viability/% = (Absorbance of treated cells − Absorbance of blank control)/(Absorbance of negative control − Absorbance of blank control) × 100. The half-maximal inhibitory concentration (IC50) was calculated with Origin 8 Pro.

[1] = test system: LPS-stimulated RAW 264.7 cells; assay: Inhibition of NO production (Griess reagent) in LPS-stimulated macrophages; assay type: cell-based, mouse; conditions: 4 h pretreatment, 1 μg/mL LPS for 24 h, mean ± SD, three independent experiments
Description: as §3
The nitrite concentration in the culture medium was measured using the Griess reagent, as previously reported, with slight modifications. The mouse macrophage cell line RAW 264.7 cells were purchased from the Shanghai Institutes for Biological Sciences and cultured in DMEM (high-glucose) medium supplemented with 10% (v/v) fetal bovine serum, 100 μg·mL^−1 penicillin and streptomycin, and 10 mM HEPES at 37 °C in a 5% CO2 atmosphere. Cells were pretreated with different samples dissolved in serum-free culture medium containing 0.5% DMSO (10, 5, 2.5, 1.25, and 0.625 μM) for 4 h, followed by stimulation with 1 μg·mL^−1 LPS for 24 h. Then, 50 μL of cell culture medium was mixed with 100 μL of Griess reagent I and II and incubated at room temperature for 10 min with horizontal shaking, after which the absorbance at 540 nm was measured in a microplate reader. Indomethacin was used as a positive control and was purchased from Sigma-Aldrich (St. Louis, MI, USA) Co. Wells with DMSO were used as a negative control (final DMSO concentration was 0.1%). The NO production inhibition rate was calculated using the flowing formula: NO production inhibition rate (%) =LPS group−Compound group/LPS group−DMSO group×100
IC50 is the concentration of the compound that inhibits 50% of NO production relative to the LPS group. All assays were performed in triplicate. The inhibition rates were calculated and plotted versus test concentrations to afford the IC50 (±SD) for three independent tests. Data were analyzed using SPSS 26.0 software. p < 0.05 was considered statistically significant.

[2] = test system: Salmonella typhimurium (ATCC 6539); assay: Antimicrobial MIC, 96-well broth dilution; assay type: cell-based; conditions: Salmonella enterica, 24 h, read-out: minimum inhibitory concentration (MIC)
Text: as §1, §2

[3] = test system: Escherichia coli (ATCC 25922); assay: Antimicrobial MIC, 96-well broth dilution; assay type: cell-based; conditions: ATCC25922, tested range 0.78–100 μg/mL, 24 h at 27 °C, means of three parallel experiments, read-out: minimum inhibitory concentration (MIC)
Text: as §1, §2

[4] = test system: Staphylococcus aureus (ATCC 12598); assay: Antimicrobial MIC, 96-well broth dilution; assay type: cell-based; conditions: read-out: minimum inhibitory concentration (MIC)
Text: as §1, §2

[5] = Mus musculus, RAW264.7, RAW 264.7 cells
[6] = ATCC12598, tested range 0.78–100 μg/mL, 24 h at 27 °C, means of three parallel experiments
[7] = RAW 264.7 cells, MTT, 72 h, without LPS stimulation, read-out: Cytotoxicity (CC50)

Compound	MIC (Penicillium italicum)	MIC (Colletotrichum musae)	MIC (Fusarium oxysporum)	CC50 at 72 h (Cytotoxicity, MTT assay)	IC50 [1, 5]	MIC [2]	MIC [3]	MIC [4, 6]	CC50 at 72 h (Cytotoxicity, MTT assay; [7])	MIC ([4]; ATCC12598, 24 h)	IC50 ([1]; RAW 264.7 cells)	minimum inhibitory concentration (MIC) (Colletotrichum musae)
COC(=O)Nc1nc2ccccc2[nH]1 [Carbendazim, reference compound]	0.78 µg/mL (≈ 4.08 µM)	0.78 µg/mL (≈ 4.08 µM)	1.56 µg/mL (≈ 8.16 µM)	–	–	–	–	–	–	–	–	–
Cc1ccc(-c2cc(C(F)(F)F)nn2-c2ccc(S(N)(=O)=O)cc2)cc1 [Celecoxib, reference compound]	–	–	–	> 50 µM	32.1 ± 1.7 µM	–	–	–	–	–	–	–
O=C(O)c1cn(C2CC2)c2cc(N3CCNCC3)c(F)cc2c1=O [Ciprofloxacin, reference compound]	–	–	–	–	–	0.2 µg/mL (≈ 0.604 µM)	0.8 µg/mL (≈ 2.41 µM)	0.1 µg/mL (≈ 0.302 µM)	–	–	–	–
Cc1cc2ccc3cc(C(C)(C)O)oc3c2cn1 [Compound 1]	50 µg/mL (≈ 207 µM)	50 µg/mL (≈ 207 µM)	50 µg/mL (≈ 207 µM)	–	17.3 µM	12.5 µg/mL (≈ 51.8 µM)	25 µg/mL (≈ 104 µM)	–	> 50 µM	12.5 µg/mL (≈ 51.8 µM)	17.3 ± 1.6 µM	–
Cc1cc2ccc3c(c2cn1)OC(C(C)(C)O)C3 (centres unmarked) [Compound 2]	50 µg/mL (≈ 206 µM)	25 µg/mL (≈ 103 µM)	50 µg/mL (≈ 206 µM)	–	31.5 ± 2.3 µM	50 µg/mL (≈ 206 µM)	50 µg/mL (≈ 206 µM)	25 µg/mL (≈ 103 µM)	> 50 µM	–	–	–
Cc1cc2ccc3c(c2cn1)O[C@@](O)(C(C)C)C3=O [Compound 3, TMC-120 C]	–	–	–	–	–	–	–	–	> 50 µM	–	–	–
CC(C)=C1Oc2c(ccc3cc(C)ncc23)C1=O [Compound 4, TMC-120 B]	–	–	–	–	–	–	–	–	> 50 µM	–	–	–
CC(C)(O)C1Cc2ccc(C=CC(=O)O)c(CO)c2O1 (centres unmarked) [Compound 5]	12.5 µg/mL (≈ 44.9 µM)	12.5 to 25 µg/mL (≈ 44.9 to 89.8 µM)	50 µg/mL (≈ 180 µM)	–	–	50 µg/mL (≈ 180 µM)	50 µg/mL (≈ 180 µM)	50 µg/mL (≈ 180 µM)	–	–	–	25 µg/mL (≈ 89.8 µM)
CC(C)C1(O)Oc2c(ccc(CO)c2CO)C1=O (centres unmarked) [Compound 6]	12.5 µg/mL (≈ 49.6 µM)	12.5 to 25 µg/mL (≈ 49.6 to 99.1 µM)	50 µg/mL (≈ 198 µM)	–	–	50 µg/mL (≈ 198 µM)	100 µg/mL (≈ 396 µM)	50 µg/mL (≈ 198 µM)	–	–	–	12.5 µg/mL (≈ 49.6 µM)

From PMC12386745, “Benzofuran Derivatives with Antimicrobial and Anti-Inflammatory Activities from Penicillium crustosum SCNU-F0046” (International Journal of Molecular Sciences, 2025)
